Measurements reported in ChEMBL document CHEMBL1201862, “PubChem BioAssay data set” (2004).
Activity calls are given as the source filed them.

Tests used:
DNA topoisomerase = DNA topoisomerase (Yersinia pestis, UniProt A0A2S9PM60); test: Y. pestis Topo-I inhibitors, cleavage product readout, dose response, biochemical, cherry-pick (AID 588525)
[1] = test system: Streptococcus sp. 'group A'; test: growth inhibition of control SK(-) GAS strain, dose response, counter-screen for streptokinase expression inhibitor project, luminescence, kanamycin, BacTiterGlo, confirmation (AID 1900); assay type: functional, organism-based
Streptokinase A = molecular target: T1, Streptokinase A (Streptococcus pyogenes serotype M1, UniProt P10520); test: S. pyogenes streptokinase expression inhibitors, potency, dose response, plasminogen activation absorbance, OD405 (AID 1914); assay type: functional, Streptococcus pyogenes M1 GAS;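 also: secreted streptokinase activity via plasminogen activation per viability signal from cell pellet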
T1 sequence (P10520 whole entry): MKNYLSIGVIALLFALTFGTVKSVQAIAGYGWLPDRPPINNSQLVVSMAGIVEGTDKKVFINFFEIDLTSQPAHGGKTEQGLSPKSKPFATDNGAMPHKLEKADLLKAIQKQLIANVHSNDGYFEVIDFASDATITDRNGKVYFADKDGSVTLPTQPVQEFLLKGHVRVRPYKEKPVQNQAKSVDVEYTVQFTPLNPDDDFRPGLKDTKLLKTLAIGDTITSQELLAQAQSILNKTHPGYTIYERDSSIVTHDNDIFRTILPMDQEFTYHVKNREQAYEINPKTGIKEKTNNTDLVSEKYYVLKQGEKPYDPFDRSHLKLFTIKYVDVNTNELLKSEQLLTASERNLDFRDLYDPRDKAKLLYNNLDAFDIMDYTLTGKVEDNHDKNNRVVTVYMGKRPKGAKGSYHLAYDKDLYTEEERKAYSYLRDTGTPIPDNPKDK

Streptococcus = test: Group A Streptococcus viability loss, dose response, counter-screen for streptokinase expression inhibitor project, luminescence, BacTiterGlo (AID 1915); assay type: functional, organism-based;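 also: potency for reduction of bacterial viability or growth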
NS3 = NS3 (Hepatitis C virus, UniProt A3EZJ3); test: PubChem AID 2173; set-up: species or system Hepacivirus hominis
[2] = molecular target: Induced myeloid leukemia cell differentiation protein Mcl-1 (Homo sapiens, UniProt Q07820); assay type: functional
[3] = enhancers of respiration in Yfh1-depleted yeast, dose response, Friedreich's ataxia, plus single-dose screen (AID 1465); assay type: functional;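 also: yeast depleted of Yfh1p frataxin homolog grown on glycerol needing respiration; WST-1 tetrazolium dye reduction as measure of cellular dehydrogenase metabolic activity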
[4] = Luminescence Cell-Based Dose Response HTS to Identify Activators of Luciferase Translation or Activity in H4 […] Cells. [Related pubchem assays: 1829 (Project Summary), 1814 (Primary HTS)]; assay type: functional
Protein RecA = molecular target: T2, Protein RecA (Mycobacterium tuberculosis, UniProt P9WHJ3); test: Fluorescence Cell-Free Homogeneous Dose Retest to Identify Inhibitors of RecA-Intein Splicing Activity. [Related pubchem assays (depositor defined):AID2097, AID2223, AID489010, AID492950]; assay type: functional
T2 sequence (P9WHJ3 whole entry): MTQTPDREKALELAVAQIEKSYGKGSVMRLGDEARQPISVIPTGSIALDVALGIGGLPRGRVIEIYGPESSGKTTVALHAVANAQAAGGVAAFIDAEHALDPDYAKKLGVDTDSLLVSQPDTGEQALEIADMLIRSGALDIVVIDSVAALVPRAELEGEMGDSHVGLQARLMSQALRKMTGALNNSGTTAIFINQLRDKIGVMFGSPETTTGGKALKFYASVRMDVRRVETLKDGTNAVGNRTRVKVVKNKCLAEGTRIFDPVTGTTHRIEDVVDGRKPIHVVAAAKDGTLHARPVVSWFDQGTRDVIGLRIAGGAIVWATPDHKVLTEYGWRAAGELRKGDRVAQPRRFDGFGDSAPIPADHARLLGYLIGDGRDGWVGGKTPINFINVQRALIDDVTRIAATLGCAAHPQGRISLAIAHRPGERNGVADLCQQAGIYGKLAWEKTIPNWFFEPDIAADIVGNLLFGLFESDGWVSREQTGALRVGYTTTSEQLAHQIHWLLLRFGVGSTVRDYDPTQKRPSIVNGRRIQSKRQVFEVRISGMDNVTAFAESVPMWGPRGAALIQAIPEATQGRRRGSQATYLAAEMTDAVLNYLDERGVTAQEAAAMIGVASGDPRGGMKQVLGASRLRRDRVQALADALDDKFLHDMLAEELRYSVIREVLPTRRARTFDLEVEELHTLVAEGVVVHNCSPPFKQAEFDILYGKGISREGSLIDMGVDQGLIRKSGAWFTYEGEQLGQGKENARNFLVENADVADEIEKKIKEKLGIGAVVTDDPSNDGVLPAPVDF

H4 = test: Luminescence Cell-Based Dose Response HTS to Identify Activators of 5'UTR Stem-Loop Driven Prion Protein mRNA Translation in H4 Neuroglioblastoma Cells. [Related pubchem assays: 1829 (Project Summary), 1814 (Primary HTS)]; assay type: functional; conditions: Homo sapiens
[5] = molecular target: T3, Polyadenylate-binding protein 1 (Homo sapiens, UniProt P11940); test: PABP1 MLLE–PAM2 binding inhibitor potency, dose response, biochemical, fluorescence polarization, FITC-PAM2 peptide (AID 602259); assay type: functional; conditions: read-out: IC50_Mean
Genome polyprotein = Genome polyprotein (dengue virus type 2, UniProt P29990); test: Dengue-2 NS5 methyltransferase inhibitors, primary screen, biochemical, confirmation dose response (AID 588689); assay type: functional
[6] = molecular target: Glucose-6-phosphate 1-dehydrogenase (Homo sapiens, UniProt P11413); test: human G6PD enzyme inhibitors, dose response, selectivity assay for P. falciparum G6PD inhibitor project, biochemical, fluorescence (AID 504792); assay type: functional
[7] = molecular target: T4, Replicative DNA helicase DnaB (Mycobacterium tuberculosis, UniProt P9WMR3); test: DnaB intein splicing inhibitors, dose response, biochemical, cell-free fluorescence (AID 449749); assay type: functional
T4 sequence (P9WMR3 whole entry): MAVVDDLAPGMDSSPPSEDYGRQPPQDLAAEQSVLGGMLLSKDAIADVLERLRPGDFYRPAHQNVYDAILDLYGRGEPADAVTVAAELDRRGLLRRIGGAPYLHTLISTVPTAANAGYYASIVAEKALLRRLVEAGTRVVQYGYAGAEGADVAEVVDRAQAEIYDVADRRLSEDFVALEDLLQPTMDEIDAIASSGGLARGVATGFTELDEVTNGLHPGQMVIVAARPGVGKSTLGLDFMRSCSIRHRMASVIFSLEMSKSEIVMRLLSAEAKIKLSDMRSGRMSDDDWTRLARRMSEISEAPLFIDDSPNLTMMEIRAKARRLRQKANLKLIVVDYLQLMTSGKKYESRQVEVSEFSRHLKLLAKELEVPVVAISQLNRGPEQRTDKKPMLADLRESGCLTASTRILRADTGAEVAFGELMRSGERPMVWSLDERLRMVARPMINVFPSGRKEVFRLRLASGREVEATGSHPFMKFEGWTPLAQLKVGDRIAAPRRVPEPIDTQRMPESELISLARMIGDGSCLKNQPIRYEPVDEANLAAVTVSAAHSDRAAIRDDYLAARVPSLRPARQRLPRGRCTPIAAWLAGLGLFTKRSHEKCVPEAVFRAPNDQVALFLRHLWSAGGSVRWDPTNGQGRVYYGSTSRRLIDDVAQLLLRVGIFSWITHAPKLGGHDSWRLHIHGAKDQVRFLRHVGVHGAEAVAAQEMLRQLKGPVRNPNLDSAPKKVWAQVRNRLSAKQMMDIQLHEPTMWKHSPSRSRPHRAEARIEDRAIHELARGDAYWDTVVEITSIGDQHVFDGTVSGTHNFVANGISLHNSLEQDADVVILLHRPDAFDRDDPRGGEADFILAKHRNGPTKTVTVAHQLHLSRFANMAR

[8] = molecular target: T3, Polyadenylate-binding protein 1; test: PABP1 MLLE–PAM2 interaction inhibitors, dose response, miRNA deadenylation inhibitor project, biochemical, fluorescence polarization, Cy5-PAM2 peptide, secondary (AID 602260); assay type: functional; conditions: read-out: IC50_Mean
Aminopeptidase N = molecular target: T5, Aminopeptidase N (Plasmodium falciparum FcB1/Columbia, UniProt O96935); test: P. falciparum M1AAP inhibitors, biochemical, fluorogenic H-Leu-NHMec substrate, 1536-well (AID 1445); set-up: species or system Plasmodium falciparum 3D7, 3D7
T5 sequence (O96935 whole entry): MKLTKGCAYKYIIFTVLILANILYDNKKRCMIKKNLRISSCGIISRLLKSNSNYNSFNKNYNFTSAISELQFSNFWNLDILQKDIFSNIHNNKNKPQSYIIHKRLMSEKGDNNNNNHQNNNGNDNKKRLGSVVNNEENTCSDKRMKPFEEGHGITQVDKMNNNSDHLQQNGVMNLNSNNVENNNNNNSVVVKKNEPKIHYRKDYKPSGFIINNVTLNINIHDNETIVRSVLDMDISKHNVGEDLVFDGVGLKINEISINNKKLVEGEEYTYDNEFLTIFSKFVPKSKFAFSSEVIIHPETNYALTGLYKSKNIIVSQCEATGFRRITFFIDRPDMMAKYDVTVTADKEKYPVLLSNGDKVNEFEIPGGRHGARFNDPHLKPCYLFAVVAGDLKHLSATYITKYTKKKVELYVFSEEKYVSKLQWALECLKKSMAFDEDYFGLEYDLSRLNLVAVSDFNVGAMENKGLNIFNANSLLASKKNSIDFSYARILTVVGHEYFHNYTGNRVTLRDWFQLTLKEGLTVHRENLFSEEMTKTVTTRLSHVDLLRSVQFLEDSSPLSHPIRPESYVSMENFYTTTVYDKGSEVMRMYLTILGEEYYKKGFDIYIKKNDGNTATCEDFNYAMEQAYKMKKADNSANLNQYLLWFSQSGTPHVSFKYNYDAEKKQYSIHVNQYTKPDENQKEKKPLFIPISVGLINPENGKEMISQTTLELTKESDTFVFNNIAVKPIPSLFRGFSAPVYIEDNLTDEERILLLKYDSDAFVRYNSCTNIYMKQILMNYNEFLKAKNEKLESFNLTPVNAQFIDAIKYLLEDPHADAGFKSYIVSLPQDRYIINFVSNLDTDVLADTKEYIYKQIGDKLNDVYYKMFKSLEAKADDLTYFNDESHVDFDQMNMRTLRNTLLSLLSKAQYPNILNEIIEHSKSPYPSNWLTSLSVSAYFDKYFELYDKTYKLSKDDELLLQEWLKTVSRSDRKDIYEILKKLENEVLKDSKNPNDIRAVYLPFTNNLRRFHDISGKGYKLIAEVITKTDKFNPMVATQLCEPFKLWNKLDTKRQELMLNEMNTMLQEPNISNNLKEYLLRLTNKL

[9] = Luminescence Cell-Based Dose Confirmation HTS to Identify Activators of 5'UTR Stem-Loop Driven Alpha-Synuclein mRNA Translation in H4 Neuroglioblastoma Cells. [Related pubchem assays: 1829 (Project Summary), 1814 (Primary HTS)]; assay type: functional
Vero = Vero cell cytotoxicity, cytotoxicity control for flavivirus capping enzyme inhibitors (AID 588742); assay type: functional; conditions: Chlorocebus sabaeus

T3 sequence (P11940 whole entry): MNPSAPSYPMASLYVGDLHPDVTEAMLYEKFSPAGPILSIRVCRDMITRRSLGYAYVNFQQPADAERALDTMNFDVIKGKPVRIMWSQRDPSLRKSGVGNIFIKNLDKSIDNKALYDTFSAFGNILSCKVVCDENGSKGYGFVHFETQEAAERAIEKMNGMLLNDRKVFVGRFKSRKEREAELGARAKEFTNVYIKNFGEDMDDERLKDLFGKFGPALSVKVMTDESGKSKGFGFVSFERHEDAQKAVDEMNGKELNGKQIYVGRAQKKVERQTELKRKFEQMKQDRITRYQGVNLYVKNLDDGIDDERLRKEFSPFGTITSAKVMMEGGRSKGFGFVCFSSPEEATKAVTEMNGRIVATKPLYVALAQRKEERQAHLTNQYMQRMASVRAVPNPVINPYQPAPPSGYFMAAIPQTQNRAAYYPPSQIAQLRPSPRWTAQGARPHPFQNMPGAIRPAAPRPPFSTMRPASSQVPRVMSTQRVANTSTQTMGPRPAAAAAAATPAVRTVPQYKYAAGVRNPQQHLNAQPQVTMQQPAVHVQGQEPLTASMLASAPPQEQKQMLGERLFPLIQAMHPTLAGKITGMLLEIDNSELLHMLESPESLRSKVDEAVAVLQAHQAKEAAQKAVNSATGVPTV
Induced myeloid leukemia cell differentiation protein Mcl-1, sequence (Q07820 whole entry): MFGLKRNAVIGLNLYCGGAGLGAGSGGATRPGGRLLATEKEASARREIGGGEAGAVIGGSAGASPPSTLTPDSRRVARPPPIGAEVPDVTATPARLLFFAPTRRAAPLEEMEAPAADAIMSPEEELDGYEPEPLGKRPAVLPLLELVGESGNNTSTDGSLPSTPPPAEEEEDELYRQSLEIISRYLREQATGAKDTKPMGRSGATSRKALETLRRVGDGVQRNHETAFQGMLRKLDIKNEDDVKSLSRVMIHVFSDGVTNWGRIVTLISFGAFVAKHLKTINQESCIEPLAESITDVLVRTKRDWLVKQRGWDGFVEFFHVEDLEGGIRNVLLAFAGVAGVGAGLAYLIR
NS3, sequence (A3EZJ3 whole entry): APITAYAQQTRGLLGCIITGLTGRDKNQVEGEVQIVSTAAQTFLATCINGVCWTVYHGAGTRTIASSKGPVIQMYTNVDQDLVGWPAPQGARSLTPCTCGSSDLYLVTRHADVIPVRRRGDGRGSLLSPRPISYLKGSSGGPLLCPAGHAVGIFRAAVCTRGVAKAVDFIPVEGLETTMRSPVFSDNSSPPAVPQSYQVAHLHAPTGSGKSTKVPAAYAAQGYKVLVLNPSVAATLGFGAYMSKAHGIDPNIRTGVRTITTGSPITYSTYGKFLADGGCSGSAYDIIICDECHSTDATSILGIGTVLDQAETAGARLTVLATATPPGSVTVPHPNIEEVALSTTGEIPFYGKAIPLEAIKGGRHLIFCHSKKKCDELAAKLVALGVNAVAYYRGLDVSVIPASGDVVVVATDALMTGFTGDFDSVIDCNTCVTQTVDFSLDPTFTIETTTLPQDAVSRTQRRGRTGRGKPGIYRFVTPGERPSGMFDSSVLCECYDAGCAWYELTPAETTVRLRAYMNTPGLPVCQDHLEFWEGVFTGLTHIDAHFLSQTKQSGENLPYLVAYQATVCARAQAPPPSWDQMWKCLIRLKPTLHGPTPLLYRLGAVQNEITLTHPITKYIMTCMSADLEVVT
Glucose-6-phosphate 1-dehydrogenase, sequence (P11413 whole entry): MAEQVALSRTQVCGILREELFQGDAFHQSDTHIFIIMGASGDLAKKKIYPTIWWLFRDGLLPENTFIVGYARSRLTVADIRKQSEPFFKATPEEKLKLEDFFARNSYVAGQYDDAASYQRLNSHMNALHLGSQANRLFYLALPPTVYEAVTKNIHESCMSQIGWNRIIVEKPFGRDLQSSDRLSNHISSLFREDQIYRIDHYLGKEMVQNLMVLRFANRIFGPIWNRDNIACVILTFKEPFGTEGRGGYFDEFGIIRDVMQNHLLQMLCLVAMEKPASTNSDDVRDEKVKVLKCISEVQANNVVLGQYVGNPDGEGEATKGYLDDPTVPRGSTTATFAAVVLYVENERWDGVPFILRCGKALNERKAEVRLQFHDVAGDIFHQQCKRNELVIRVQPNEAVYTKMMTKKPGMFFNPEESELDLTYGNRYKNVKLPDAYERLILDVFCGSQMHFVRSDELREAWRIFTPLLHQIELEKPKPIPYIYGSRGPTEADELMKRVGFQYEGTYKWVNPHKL
DNA topoisomerase, sequence (A0A2S9PM60 whole entry): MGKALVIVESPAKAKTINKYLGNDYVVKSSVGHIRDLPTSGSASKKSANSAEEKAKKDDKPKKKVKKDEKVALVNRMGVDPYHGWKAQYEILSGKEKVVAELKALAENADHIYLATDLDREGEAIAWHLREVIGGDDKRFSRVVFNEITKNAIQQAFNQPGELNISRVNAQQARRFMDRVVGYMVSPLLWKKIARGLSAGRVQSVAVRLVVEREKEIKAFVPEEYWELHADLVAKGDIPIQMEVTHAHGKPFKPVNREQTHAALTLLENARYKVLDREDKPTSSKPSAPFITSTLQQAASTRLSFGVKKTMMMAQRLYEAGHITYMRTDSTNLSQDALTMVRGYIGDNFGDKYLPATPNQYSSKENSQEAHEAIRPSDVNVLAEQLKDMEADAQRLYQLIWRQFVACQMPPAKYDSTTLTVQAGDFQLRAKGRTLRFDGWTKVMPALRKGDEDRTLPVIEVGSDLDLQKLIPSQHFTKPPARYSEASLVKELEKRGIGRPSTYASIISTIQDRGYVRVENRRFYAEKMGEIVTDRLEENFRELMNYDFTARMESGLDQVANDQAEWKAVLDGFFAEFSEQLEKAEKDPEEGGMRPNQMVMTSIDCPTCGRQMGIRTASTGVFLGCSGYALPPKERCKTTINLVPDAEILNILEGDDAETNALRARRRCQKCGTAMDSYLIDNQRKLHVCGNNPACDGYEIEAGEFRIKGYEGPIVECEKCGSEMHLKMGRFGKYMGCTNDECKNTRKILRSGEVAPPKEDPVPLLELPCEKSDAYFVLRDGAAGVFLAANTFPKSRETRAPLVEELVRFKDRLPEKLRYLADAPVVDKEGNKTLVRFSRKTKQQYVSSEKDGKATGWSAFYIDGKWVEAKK
Genome polyprotein, sequence (P29990 2492-3391 limits assumed): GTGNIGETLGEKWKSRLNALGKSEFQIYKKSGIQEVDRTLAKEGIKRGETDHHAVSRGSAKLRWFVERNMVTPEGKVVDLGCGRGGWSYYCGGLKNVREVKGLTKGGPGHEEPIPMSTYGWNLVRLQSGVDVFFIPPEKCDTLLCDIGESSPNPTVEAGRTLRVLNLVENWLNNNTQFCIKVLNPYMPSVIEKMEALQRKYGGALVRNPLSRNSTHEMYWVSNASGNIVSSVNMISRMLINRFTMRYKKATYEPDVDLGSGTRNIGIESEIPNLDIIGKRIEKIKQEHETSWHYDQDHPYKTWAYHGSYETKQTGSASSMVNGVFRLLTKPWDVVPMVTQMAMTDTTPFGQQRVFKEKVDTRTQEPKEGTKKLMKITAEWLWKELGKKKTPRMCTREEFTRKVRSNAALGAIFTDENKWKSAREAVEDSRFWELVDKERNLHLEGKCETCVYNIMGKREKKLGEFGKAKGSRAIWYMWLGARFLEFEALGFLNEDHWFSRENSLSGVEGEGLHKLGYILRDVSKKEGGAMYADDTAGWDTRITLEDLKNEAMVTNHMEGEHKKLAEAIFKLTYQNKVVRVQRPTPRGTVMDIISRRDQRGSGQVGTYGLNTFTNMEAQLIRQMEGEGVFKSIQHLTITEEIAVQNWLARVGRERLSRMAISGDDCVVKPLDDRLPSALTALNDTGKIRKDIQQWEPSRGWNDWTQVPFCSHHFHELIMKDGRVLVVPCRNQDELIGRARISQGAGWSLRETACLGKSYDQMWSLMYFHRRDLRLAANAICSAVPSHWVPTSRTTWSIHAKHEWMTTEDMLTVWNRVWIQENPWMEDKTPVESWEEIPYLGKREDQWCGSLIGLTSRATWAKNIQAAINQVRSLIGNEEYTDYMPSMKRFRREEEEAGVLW

SMILES	AC50 (DNA topoisomerase)	EC50 [1]	EC50 (Streptokinase A)	EC50 (Streptococcus)	IC50 (NS3)	IC50 [2]	EC50 [3]	EC50 [4]	EC50 (Protein RecA)	EC50 (H4)	IC50 [5]	IC50 (Genome polyprotein)	IC50 [6]	AC50 [7]	IC50 [8]	IC50 (Aminopeptidase N)	EC50 [9]	CC50 (Vero)
Cc1ccc(C2C(C(=O)c3cc4ccccc4o3)=C(O)C(=O)N2c2cc(C)on2)cc1 (stereo not drawn)	8.86 µM (active)	2.28 µM (active)	6.3 µM (active)	6.76 µM (active)	2.49 µM (active)													
Cc1ccc(S(=O)(=O)/N=C2/C=C(C3C(=O)CC(C)(C)CC3=O)C(=O)c3ccccc32)cc1						2.13 µM (active)	> 100 µM (active)	42.1 µM (active)	3.22 µM (active)	46.4 µM (active)	> 66 µM (inactive)	10.1 µM (active)	> 80 µM (inactive)	113 µM (active)	> 66 µM (inactive)	34.5 µM (active)	8.21 µM (active)	> 40 µM (active)
